Measurements taken from patent US12018267B2, “Plants having increased tolerance to herbicides” (BASF SE, priority 2015, dated 2024).
Several values for one entry are separate records, joined by “and”; a condition that tells them apart may be missing. Equal entries are not always repeated.

Experiments:
[1] = system: wild type rice materials (O. sativa M2 Volano); assay: Greenhouse foliar application, crop injury on wild type rice materials (Tables E10-1, E10-2); assay type: in vivo, Oryza sativa; conditions: wild type rice (OsCESA WT)
Description: Oryza sativa M2 Volano is a cellulose biosynthesis inhibitor susceptible rice risotto population that was subjected to sodium azide seed mutagenesis but was not tilled nor selected for CESA mutations. O. sativa Volano-M3-CESA1 and CESA3 mutants were selected from a subpopulation of O. sativa M2 Volano by sequencing CESA gene sequences in M2 plants and maintaining (producing seed through selfing) those individuals containing key mutations in these genes. The tolerance of the M3 CESA1 and CESA3 mutants was assessed using 6-(1-fluorocyclopentyl)-N2-(2,3,5,6-tetrafluorophenyl)-1,3,5-triazine-2,4-diamine, together with 1.0% DASH® EC adjuvant (BASF). The tolerance of M4 CESA1 and CESA3 mutants was assessed using 6-cyclopentyl-N4-(2,3,4,5,6-pentafluorophenyl)-1,3,5-triazine-2,4-diamine, together with 1.0% DASH® EC adjuvant (BASF).
M3 seed, which were harvested from tilled and selected individuals containing mutations in the CESA1 and CESA3 genes, were grown in the greenhouse under natural light conditions supplemented with 400 W sodium halide lamps under a 16 hr day length. Day/night temperatures were 26 and 20° C., respectively. The number of M3 plants from each line varied between 2 and 16, depending on seed availability and germination. A non-selective CBI, azine 6-(1-fluorocyclopentyl)-N2-(2,3,5,6-tetrafluorophenyl)-1,3,5-triazine-2,4-diamine, formulated with 1.0% DASH in a water volume of 375 L/ha was applied early post-emergent (one to two leaf stage) at a rate of 250 g ai/ha to M3 CESA1 and CESA3 mutant rice plants growing in soil in the greenhouse. Only plants originating from lines having more than four seeds were subjected to herbicide treatment. CESA mutant lines with four or fewer seeds were selfed for an additional generation and then tested at the M4 generation with 6-cyclopentyl-N4-(2,3,4,5,6-pentafluorophenyl)-1,3,5-triazine-2,4-diamine. M4 plants were grown under similar conditions as M3 plants and treated with 250 g ai/ha or 500 g ai/ha of 6-cyclopentyl-N4-(2,3,4,5,6-pentafluorophenyl)-1,3,5-triazine-2,4-diamine. Previous kill curve greenhouse tests had identified that a rate of 250 g ai/ha of 6-(1-fluorocyclopentyl)-N2-(2,3,5,6-tetrafluorophenyl)-1,3,5-triazine-2,4-diamine and a rate of 250 g ai/ha 6-cyclopentyl-N4-(2,3,4,5,6-pentafluorophenyl)-1,3,5-triazine-2,4-diamine, both with 1.0% DASH, were sufficient doses to kill O. sativa M2 Volano check plants. […] Plants were assessed for crop injury, using a scale from 0% injury to 100% injury, at 11 and 21 days after treatment (DAT) for M3 plants applied with 6-(1-fluorocyclopentyl)-N2-(2,3,5,6-tetrafluorophenyl)-1,3,5-triazine-2,4-diamine and 36 DAT for M4 plants applied with 6-cyclopentyl-N4-(2,3,4,5,6-pentafluorophenyl)-1,3,5-triazine-2,4-diamine. Plants without any symptoms were recorded as “0%” injury. Increasing levels of reduced leaf mass and reduced stalk stiffness, with respect to the untreated control plants, were recorded in the range of “1 to 49%” injury. Increasing levels of leaf abnormalities and leaf necrosis, along with increased levels of lodging, relative to the untreated control plants, were recorded in the range of “50 to 85%” injury. Dead or dying plants with necrosis of the apex and severe lodging were recorded between “86-100%”. Data on individual plants was assessed and recorded due to the low number of individuals per line and the fact that the CESA mutations in the M2 generation were heterozygous and therefore segregating at the M3 and M4 generations. […]

[2] = system: O. sativa M2 Volano check plants; assay: Previous kill curve greenhouse tests on rice check plants; assay type: in vivo, Oryza sativa; conditions: with 1.0% DASH
Protocol: M3 seed, which were harvested from tilled and selected individuals containing mutations in the CESA1 and CESA3 genes, were grown in the greenhouse under natural light conditions supplemented with 400 W sodium halide lamps under a 16 hr day length. Day/night temperatures were 26 and 20° C., respectively. The number of M3 plants from each line varied between 2 and 16, depending on seed availability and germination. […] Plants were assessed for crop injury, using a scale from 0% injury to 100% injury, at 11 and 21 days after treatment (DAT) for M3 plants applied with 6-(1-fluorocyclopentyl)-N2-(2,3,5,6-tetrafluorophenyl)-1,3,5-triazine-2,4-diamine and 36 DAT for M4 plants applied with 6-cyclopentyl-N4-(2,3,4,5,6-pentafluorophenyl)-1,3,5-triazine-2,4-diamine. Plants without any symptoms were recorded as “0%” injury. Increasing levels of reduced leaf mass and reduced stalk stiffness, with respect to the untreated control plants, were recorded in the range of “1 to 49%” injury. Increasing levels of leaf abnormalities and leaf necrosis, along with increased levels of lodging, relative to the untreated control plants, were recorded in the range of “50 to 85%” injury. Dead or dying plants with necrosis of the apex and severe lodging were recorded between “86-100%”. […]

SMILES | Crop Injury Assessment (%) at 20 DAT ([1]; foliar application 250 g ai/ha, 20 DAT) | rate sufficient to kill O. sativa M2 Volano check plants [2] | Crop injury assessment (%) at 23 DAT ([1]; foliar application 250 g ai/ha) | Crop injury assessment (%) at 36 DAT ([1]; foliar application 250 g ai/ha) | Crop injury assessment (%) at 23 DAT ([1]; foliar application 500 g ai/ha) | Crop injury assessment (%) at 36 DAT ([1]; foliar application 500 g ai/ha)
Nc1nc(Nc2c(F)c(F)cc(F)c2F)nc(C2(F)CCCC2)n1 [6-(1-fluorocyclopentyl)-N2-(2,3,5,6-tetrafluorophenyl)-1,3,5-triazine-2,4-diamine] | 100% | 250 g ai/ha | – | – | – | –
Nc1nc(Nc2c(F)c(F)c(F)c(F)c2F)nc(C2CCCC2)n1 [6-cyclopentyl-N4-(2,3,4,5,6-pentafluorophenyl)-1,3,5-triazine-2,4-diamine] | – | 250 g ai/ha | 75% and 65% | 70% and 95% | 98% and 95% | 100%
